Publication PMC7316490, “Dihydrofolate Reductase Is a Valid Target for Antifungal Development in the Human Pathogen Candida albicans” (mSphere, 2020)
≈ marks a conversion by molar mass, not a printed value.

Columns and labels:
[1] = system: wild-type C. albicans strain (SC5314); test: Antifungal susceptibility testing (dose-response growth, OD600); format: cell-based, Candida albicans; settings: for MIC50: Candida albicans
Protocol: A wild-type C. albicans strain (SC5314) was seeded at 1 × 10^4 cells/ml into YNB medium without folate or PABA with the indicated supplements and increasing concentrations of MTX. After 48 h of incubation at 30°C, growth was quantified as the OD600 value and expressed as a percentage of the value for the DMSO-treated control. The values presented here are the average of two replicates and are representative of two independent experiments.
Approximately 1 × 10^4 cells/ml of a wild-type C. albicans strain was seeded into a 96-well plate with increasing concentrations of MTX in YNB pH 5, YNB pH 7, and RPMI pH 7 media. After 48 h, the OD600 was measured and expressed as a percentage of the value for the DMSO-treated control. The results presented here are the averages of two replicates and are representative of two independent experiments.
Stock solutions of MTX were prepared at 10 mM in dimethyl sulfoxide (DMSO) and diluted as needed in the same solvent. […] The final concentration of DMSO was 0.5% for all treatments. Plates were then incubated at 30°C before growth was quantified after 24 and 48 h by measuring the OD600 using a Cytation 5 plate reader (Bio-Tek Instruments, Inc.). MIC50 values were identified visually using the CLSI antifungal susceptibility assay and then confirmed by quantifying growth by the OD600 value. The growth of each strain at each drug concentration was then expressed relative to that of the DMSO-alone control. The susceptibility to MTX at the highest concentration at each pH was compared to that of the other pH values using a two-tailed Student's t test.

[2] = system: C. albicans cdr1Δ/Δ, tac1Δ/Δ and mdr1Δ/Δ mutants; test: Antifungal susceptibility testing of efflux pump mutants; format: cell-based, Candida albicans; settings: for MIC50: Candida albicans
Protocol: C. albicans cdr1Δ/Δ (A), tac1Δ/Δ (B), or mdr1Δ/Δ (C) strains, or that overexpress CDR1 (A), TAC1 (B), or MDR1 (C) from the PTEF1 promoter, were subcultured to approximately 1 × 10^4 cells/ml into YNB medium at pH 5 or pH 7 supplemented with a range of MTX concentrations. After 48 h at 30°C, growth was quantified as the OD600 value and expressed as a percentage of the value for the untreated wells. The values presented here are the average of two replicates and are representative of two independent experiments. WT, wild type.
(§1) Stock solutions of MTX were prepared at 10 mM in dimethyl sulfoxide (DMSO) and diluted as needed in the same solvent. Each C. albicans strain was grown overnight in YPD medium at 30°C and diluted to approximately 1 × 10^4 cells/ml in YNB medium or RPMI 1640 medium, and 100 μl of each cell suspension was transferred to the wells of a round-bottom 96-well plate. An additional 100 μl of YNB or RPMI 1640 medium containing 2× the final desired concentration of MTX was then added to each well. The final concentration of DMSO was 0.5% for all treatments. Plates were then incubated at 30°C before growth was quantified after 24 and 48 h by measuring the OD600 using a Cytation 5 plate reader (Bio-Tek Instruments, Inc.). MIC50 values were identified visually using the CLSI antifungal susceptibility assay and then confirmed by quantifying growth by the OD600 value. The growth of each strain at each drug concentration was then expressed relative to that of the DMSO-alone control. The susceptibility to MTX at the highest concentration at each pH was compared to that of the other pH values using a two-tailed Student's t test.

Candida glabrata = test: Antifungal susceptibility testing, other species; format: cell-based; settings: YNB medium at pH 5 and pH 7
Protocol: (§2) Strains of C. albicans (A), C. glabrata (B), C. tropicalis (C), and C. parapsilosis (D) were seeded into YNB medium buffered at pH 5 or pH 7 at approximately 1 × 10^4 cells/ml in the presence of a range of MTX concentrations. After 48 h at 30°C, growth was quantified as the OD600 and expressed as a percentage of the value for the untreated controls. The values presented here are the average of two replicates and are representative of two experiments. The susceptibility to MTX at the highest concentration at each pH was compared to that of the other pH values using a two-tailed Student's t test (*, P < 0.01; **, P < 0.0001).
as §1

Candida parapsilosis = test: Antifungal susceptibility testing, other species; format: cell-based; settings: YNB medium at pH 5 and pH 7
Protocol: as §2, §1

Candida tropicalis = test: Antifungal susceptibility testing, other species; format: cell-based; settings: YNB medium at pH 5 and pH 7
Protocol: as §2, §1

`CN(Cc1cnc2nc(N)nc(N)c2n1)c1ccc(C(=O)N[C@@H](CCC(=O)O)C(=O)O)cc1` [Methotrexate, methotrexate] gave an MIC50 ([1]; SC5314, YNB medium with additional supplements of folic acid (up to 25 μM)) of 0.078 µM (≈ 0.0354 µg/mL), an MIC50 ([1]; SC5314, YNB with addition of 250 μM folinic acid) of about 5 µM (≈ 2.27 µg/mL) and an MIC50 ([1]; SC5314, pH 5, YNB pH 5 medium) of about 0.78 µM (≈ 0.354 µg/mL). The MIC50 ([1]; SC5314, pH 7, RPMI 1640 pH 7 medium) was over 50 µM, the MIC50 ([1]; SC5314, pH 7, YNB pH 7 medium) was over 50 µM and the MIC50 ([1]; SC5314, unbuffered standard YNB medium) was about 0.78 µM (≈ 0.354 µg/mL). For the same compound, the “effect of 1 μM DHF, THF or 5MTHF supplement on MTX-mediated growth inhibition” value ([1]; YNB medium) was “had no effect”, the “drop of MIC50 with folic acid supplements” value ([1]; versus standard YNB medium) was about 10 fold and the MIC50 ([2]; pH 5) was 0.39 µM (≈ 0.177 µg/mL). For the same compound, the MIC50 ([2]; pH 7) was over 6.25 µM, the “susceptibility of mdr1Δ/Δ mutant versus MDR1+ control strains” value ([2]; YNB medium at pH 5 or 7) was “not significantly different” and the “growth inhibition (in words)” value (Candida glabrata) was “insensitive at either pH”. The “growth inhibition (in words)” value (Candida parapsilosis) was “modest and pH-dependent growth inhibition” and the “growth inhibition (in words)” value (Candida tropicalis) was “modest and pH-dependent growth inhibition”.
